Test results: patent US20250146039A1, “Terpene Glycoside Derivatives and Uses Thereof” (Firmenich SA, priority 2018, published 2025)

Tested on: panel of taste experts
Assay: taste evaluation of purified compounds in a water base
Format: in vivo
Conditions: 500 ppm in a water base
Description: A composition comprising the at least one glucosylated terpene glucosides was generated according to the methods described in the preceding examples. The compounds were dissolved in water (alternatively, the compounds could also be combined into a 2% (w/w) or 4% (w/w) sucrose solution or 7% (w/w) inverted sugar plus 0.15% citric acid (w/w) solution), wherein the final concentration of the composition in solution may range from 1 to 1000 ppm. A panel of taste experts evaluated the solutions.

SMILES | taste perceived | times sweeter than sucrose
C=C1C[C@@]23CC[C@H]4[C@@](C)(CCC[C@@]4(C)C(=O)O[C@@H]4OC(CO[C@H]5OC(CO)[C@@H](O)C(O)C5O)[C@@H](O)C(O)C4O)[C@@H]2CC[C@]1(O[C@@H]1OC(CO)[C@@H](O)C(O[C@@H]2OC(CO)[C@@H](O)C(O)C2O)C1O[C@@H]1OC(CO)[C@@H](O)C(O)C1O)C3 (stereo partly drawn) [compound of formula III, Mono α-1,6-glucosylated Rebaudioside A] | strong sweet taste | 200-300 times
C=C1C[C@@]23CC[C@H]4[C@@](C)(CCC[C@@]4(C)C(=O)O[C@@H]4OC(CO)[C@@H](O)C(O)C4O)[C@@H]2CC[C@]1(O[C@@H]1OC(CO)[C@@H](O)C(O[C@@H]2OC(CO[C@H]4OC(CO)[C@@H](O)C(O)C4O)[C@@H](O)C(O)C2O)C1O[C@@H]1OC(CO)[C@@H](O)C(O)C1O)C3 (stereo partly shown) [compound of formula VIII] | strong sweet taste | 200-300 times
